Holding throughout (experiment): Fixed Ratio Drug Combination Assay, cell proliferation (CellTiter Glo)
What all share (assay type): cell-based, human
For orientation: In ATP-based viability assays light output follows the ATP content of the culture.

In one assay the test system is SW1417. Particulars: 72 hours; for IC50: Homo sapiens, read-out: gIC50. On the procedure:
(§1) Combination drug tests with Compounds A and B were conducted using a panel of cell lines from human colon cancers (n=25) (Table 1). Cell lines were purchased commercially [from ATCC (Manassas, Va., USA) or DSMZ (Braunschweig, Germany)] and grown in RPMI-1640 supplemented with 2 mM glutamine, 1 mM sodium pyruvate and 10% fetal bovine serum and maintained at 37° C. and 5% CO2 in a humid incubator.
(§2) The dilution design of the Fixed Ratio Drug Combination Assay can be seen in FIG. 1. First, the test compounds were prepared as 10 mM stocks in 100% dimethyl sulfoxide (DMSO). Further dilutions of the compounds were made with DMSO. The first test compound (designated as Compound A) is diluted horizontally in a 96 well microtiter plate in rows B-E using a 3-fold dilution series for 10 dilution points. A second test compound (designated as Compound B) is diluted horizontally in a separate 96 well microtiter plate in rows D-G using a 3-fold dilution series for 10 dilution points. The two compounds are combined using equal volumes from each drug plate into cell culture media. […] Compound A is individually titrated in rows B and C, while only Compound B is dosed in rows F and G of the plate. An additional 1:10 dilution of the drugs is performed in cell culture media prior to addition to the cells. Drug addition to the cells results in a further 1:2 dilution of drugs. The total dilution of the drug plate to the cells is […]. The final dosing concentration range for Compound B was 0.1-1000.0 nM and was 0.5-10000.0 nM for Compound A. The positive control consists of culture media with DMSO at 0.1% and cells and no drug. The negative control consists of culture media with DMSO at 0.1%. solution.
(§3) Assays were performed in 96 well microtiter plates with appropriate seeding densities estimated from previous studies of each cell line. Following dosing, the cell lines are incubated at 37° C., 5% CO2 in humid air for 72 hours. Cell proliferation was measured using the CellTiter Glo (Promega Corporation, Madison, Wis., USA) reagent according to the manufacturer's protocol. The plates are treated with CellTiter Glo solution and are analyzed for RLU (relative light units) using a Molecular Devices SpectraMax M5 (Sunnyvale, Calif., USA) plate reader.
(§4) Results are expressed as a percentage of the number of cells present at the time of compound addition value (T0) and plotted against compound(s) concentration. The percent intensity values were used in model 205 of the IDBS XLfit plug-in for Microsoft Excel to calculate gIC50 values using a 4 parameter logistical fit. Background correction is made by subtraction of values from wells containing no cells. The midpoint of the growth window (the gIC50) falls half way between the number of cells at the time of compound addition and the growth of control cells treated with DMSO at 72 hrs. The number of cells at time zero is divided from the intensity value at the bottom of the response curve (Ymin) to generate a measure for cell death (Ymin/T0). A value below 1 for Ymin/T0 indicates stronger potency with the treatment when compared to higher values. For duplicate assays, all response metrics are averaged for presentation.
(§5) Three independent metrics were used to analyze the combinatorial effects on growth inhibition of Compound B and Compound A. • 1. Excess over Highest Single Agent (EOHSA)—One standard criterion for measuring drug combinatorial effects is analyzing the effects on cell growth inhibition in absolute terms. In this case, the combination of drugs is compared to the more responsive of the two individual treatments (single agent). For each combination experiment, the percent effect relative to the highest single agent for each dose along the curve is generated. This measure of “Excess of Highest Single Agent (EOHSA)” is one of the criteria used for evaluating synergy of drug combinations. […]

A further assay deals with HT29. The following applies: for Ymin/T0: 72 hours; for IC50: Homo sapiens, HT-29, 72 hours, read-out: gIC50. The method, then:
as §1, §2, §3, §4, §5

The subject of another assay is NCIH747. The following applies: for Ymin/T0: 72 hours; for IC50: Homo sapiens, NCI-H747, 72 hours, read-out: gIC50. On the procedure: as §1, §2, §3, §4, §5

A value given as a limit tells only on which side of the number the result lay.

Take `CC(C)(C)c1nc(-c2cccc(NS(=O)(=O)c3c(F)cccc3F)c2F)c(-c2ccnc(N)n2)s1` [Compound A, N-{3-[5-(2-amino-4-pyrimidinyl)-2-(1,1-dimethylethyl)-1,3-thiazol-4-yl]-2-fluorophenyl}-2,6-difluorobenzenesulfonamide]: the results for the Ymin/T0 in the assay with SW1417, with HT29 and in the assay on NCIH747 were 1.1, 4.0 and 1.3, respectively. In addition, the values for the IC50 with SW1417, in the assay with HT29 and with NCIH747 were 246 nM, 17.2 nM and over 10000 nM, respectively.

`COc1ncc(-c2ccc3nccc(-c4ccnnc4)c3c2)cc1NS(=O)(=O)c1ccc(F)cc1F` [Compound B, 2,4-difluoro-N-{2-(methyloxy)-5-[4-(4-pyridazinyl)-6-quinolinyl]-3-pyridinyl}benzenesulfonamide]: the Ymin/T0 with SW1417 turned out to be 1.3; in the assay with HT29, 2.0; with NCIH747 it was 0.5. Besides, the IC50 in the assay on SW1417 was determined as 1.4 nM; with HT29 it was 7.4 nM; in the assay on NCIH747, 2.7 nM.
